According to ChEMBL document CHEMBL3085697, “Design and synthesis of aryl sulfonamide-based nonsteroidal mineralocorticoid receptor antagonists” (Bioorg Med Chem Lett, 2013):
pIC50, pKi: −log10 of the molar value.

What was measured:
[1] = Lipophilicity, log D of the compound; assay type: physicochemical; details: octanol/water
[2] = Apparent intrinsic clearance in human liver microsomes; assay type: ADME; details: read-out: CLH(app)
[3] = molecular target: T1, Mineralocorticoid receptor (Homo sapiens, UniProt P08235); assay: Displacement of [3H]aldosterone from GST-tagged human mineralocorticoid receptor ligand binding domain after 4 hrs by liquid scintillation counting
T1 sequence (P08235 whole entry): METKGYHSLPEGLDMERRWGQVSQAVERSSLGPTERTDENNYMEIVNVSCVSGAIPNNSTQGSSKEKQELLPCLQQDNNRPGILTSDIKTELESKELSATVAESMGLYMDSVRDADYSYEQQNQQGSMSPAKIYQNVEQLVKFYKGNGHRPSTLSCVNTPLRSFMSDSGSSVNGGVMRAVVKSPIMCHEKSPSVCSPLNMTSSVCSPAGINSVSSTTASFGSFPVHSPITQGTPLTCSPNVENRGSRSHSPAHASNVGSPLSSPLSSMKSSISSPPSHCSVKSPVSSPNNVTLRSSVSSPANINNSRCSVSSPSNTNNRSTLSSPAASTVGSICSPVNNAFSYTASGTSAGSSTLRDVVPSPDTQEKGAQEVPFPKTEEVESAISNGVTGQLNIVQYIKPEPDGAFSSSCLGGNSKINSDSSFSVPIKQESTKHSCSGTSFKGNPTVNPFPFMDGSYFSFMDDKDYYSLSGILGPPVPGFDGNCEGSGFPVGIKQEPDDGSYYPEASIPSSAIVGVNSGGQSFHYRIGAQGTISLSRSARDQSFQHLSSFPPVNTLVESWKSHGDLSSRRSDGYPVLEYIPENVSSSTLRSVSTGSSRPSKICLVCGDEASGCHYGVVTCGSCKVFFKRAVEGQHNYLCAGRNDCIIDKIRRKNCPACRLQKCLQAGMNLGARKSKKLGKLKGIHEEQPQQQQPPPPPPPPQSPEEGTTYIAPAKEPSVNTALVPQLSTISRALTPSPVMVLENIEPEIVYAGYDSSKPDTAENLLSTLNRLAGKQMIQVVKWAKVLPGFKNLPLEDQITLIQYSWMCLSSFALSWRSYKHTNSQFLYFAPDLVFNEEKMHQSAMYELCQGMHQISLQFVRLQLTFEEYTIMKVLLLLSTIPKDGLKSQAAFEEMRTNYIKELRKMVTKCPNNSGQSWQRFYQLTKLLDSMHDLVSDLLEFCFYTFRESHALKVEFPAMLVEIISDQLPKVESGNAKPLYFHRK

Androgen receptor = molecular target: T2, Androgen receptor (Homo sapiens, UniProt P10275); assay: Antagonist activity at human androgen receptor ligand binding domain expressed in human Huh7 cells after 16 hrs by luciferase reporter gene assay; assay type: cell-based, Huh-7
T2 sequence (P10275 whole entry): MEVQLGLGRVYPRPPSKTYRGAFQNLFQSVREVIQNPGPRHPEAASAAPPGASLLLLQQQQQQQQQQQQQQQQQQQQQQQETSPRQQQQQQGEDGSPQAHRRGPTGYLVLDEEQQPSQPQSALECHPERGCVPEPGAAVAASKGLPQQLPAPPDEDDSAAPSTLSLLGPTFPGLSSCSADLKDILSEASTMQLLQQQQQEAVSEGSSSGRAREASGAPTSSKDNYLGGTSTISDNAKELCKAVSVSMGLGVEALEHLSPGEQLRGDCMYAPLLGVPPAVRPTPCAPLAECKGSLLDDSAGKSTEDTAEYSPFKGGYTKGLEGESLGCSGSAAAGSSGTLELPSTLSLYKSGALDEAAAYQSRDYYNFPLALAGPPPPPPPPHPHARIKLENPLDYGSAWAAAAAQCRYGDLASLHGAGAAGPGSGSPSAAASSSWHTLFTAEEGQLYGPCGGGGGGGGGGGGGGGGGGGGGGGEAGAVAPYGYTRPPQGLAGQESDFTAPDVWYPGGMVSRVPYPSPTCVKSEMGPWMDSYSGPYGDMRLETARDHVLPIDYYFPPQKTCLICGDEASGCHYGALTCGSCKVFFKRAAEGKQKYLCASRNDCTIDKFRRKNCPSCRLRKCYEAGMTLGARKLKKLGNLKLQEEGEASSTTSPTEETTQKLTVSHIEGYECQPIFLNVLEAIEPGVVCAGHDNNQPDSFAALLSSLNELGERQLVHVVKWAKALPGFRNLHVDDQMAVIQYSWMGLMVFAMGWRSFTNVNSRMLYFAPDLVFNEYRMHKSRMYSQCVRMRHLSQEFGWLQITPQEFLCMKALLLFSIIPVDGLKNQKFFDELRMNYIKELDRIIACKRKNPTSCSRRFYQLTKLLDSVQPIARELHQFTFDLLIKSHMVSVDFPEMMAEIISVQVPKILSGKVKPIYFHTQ

Hepatocyte = assay: Apparent intrinsic clearance in human hepatocytes assessed per million cells; assay type: ADME, cell-based
[4] = Apparent permeability across dog RRCK cells; assay type: ADME, cell-based, Canis lupus familiaris, MDCKII-LE; details: MDCK
[5] = molecular target: T1, Mineralocorticoid receptor; assay: Antagonist activity at human mineralocorticoid receptor ligand binding domain expressed in human Huh7 cells after 16 hrs by luciferase reporter gene assay in presence of serum; assay type: cell-based, Huh-7
CYP2C9 = CYP2C9 (Homo sapiens, UniProt P11712); assay: Inhibition of CYP2C9 (unknown origin) at 3 uM; assay type: ADME
CYP3A4 = CYP3A4 (Homo sapiens, UniProt P08684); assay: Inhibition of CYP3A4 (unknown origin) at 3 uM; assay type: ADME
CYP1A2 = molecular target: T3, CYP1A2 (Homo sapiens, UniProt P05177); assay: Inhibition of CYP1A2 (unknown origin) at 3 uM; assay type: ADME
T3 sequence (P05177 whole entry): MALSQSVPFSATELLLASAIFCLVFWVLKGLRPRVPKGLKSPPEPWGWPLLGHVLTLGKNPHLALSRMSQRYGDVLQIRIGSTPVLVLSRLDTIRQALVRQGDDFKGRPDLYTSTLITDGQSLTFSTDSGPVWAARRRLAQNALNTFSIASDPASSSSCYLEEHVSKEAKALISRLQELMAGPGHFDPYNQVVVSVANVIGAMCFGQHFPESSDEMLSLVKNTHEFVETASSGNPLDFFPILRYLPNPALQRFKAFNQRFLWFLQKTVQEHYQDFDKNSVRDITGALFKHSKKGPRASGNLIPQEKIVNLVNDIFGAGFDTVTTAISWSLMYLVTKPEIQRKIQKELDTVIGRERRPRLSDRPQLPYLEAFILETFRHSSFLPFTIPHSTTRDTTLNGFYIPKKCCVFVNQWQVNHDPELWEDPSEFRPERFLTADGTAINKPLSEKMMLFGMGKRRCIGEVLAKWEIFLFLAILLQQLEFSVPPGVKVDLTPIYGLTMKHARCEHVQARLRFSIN

Progesterone receptor = molecular target: T4, Progesterone receptor (Homo sapiens, UniProt P06401); assay: Displacement of [3H]progesterone from human His-progesterone receptor B after 4 hrs by liquid scintillation counting
T4 sequence (P06401 whole entry): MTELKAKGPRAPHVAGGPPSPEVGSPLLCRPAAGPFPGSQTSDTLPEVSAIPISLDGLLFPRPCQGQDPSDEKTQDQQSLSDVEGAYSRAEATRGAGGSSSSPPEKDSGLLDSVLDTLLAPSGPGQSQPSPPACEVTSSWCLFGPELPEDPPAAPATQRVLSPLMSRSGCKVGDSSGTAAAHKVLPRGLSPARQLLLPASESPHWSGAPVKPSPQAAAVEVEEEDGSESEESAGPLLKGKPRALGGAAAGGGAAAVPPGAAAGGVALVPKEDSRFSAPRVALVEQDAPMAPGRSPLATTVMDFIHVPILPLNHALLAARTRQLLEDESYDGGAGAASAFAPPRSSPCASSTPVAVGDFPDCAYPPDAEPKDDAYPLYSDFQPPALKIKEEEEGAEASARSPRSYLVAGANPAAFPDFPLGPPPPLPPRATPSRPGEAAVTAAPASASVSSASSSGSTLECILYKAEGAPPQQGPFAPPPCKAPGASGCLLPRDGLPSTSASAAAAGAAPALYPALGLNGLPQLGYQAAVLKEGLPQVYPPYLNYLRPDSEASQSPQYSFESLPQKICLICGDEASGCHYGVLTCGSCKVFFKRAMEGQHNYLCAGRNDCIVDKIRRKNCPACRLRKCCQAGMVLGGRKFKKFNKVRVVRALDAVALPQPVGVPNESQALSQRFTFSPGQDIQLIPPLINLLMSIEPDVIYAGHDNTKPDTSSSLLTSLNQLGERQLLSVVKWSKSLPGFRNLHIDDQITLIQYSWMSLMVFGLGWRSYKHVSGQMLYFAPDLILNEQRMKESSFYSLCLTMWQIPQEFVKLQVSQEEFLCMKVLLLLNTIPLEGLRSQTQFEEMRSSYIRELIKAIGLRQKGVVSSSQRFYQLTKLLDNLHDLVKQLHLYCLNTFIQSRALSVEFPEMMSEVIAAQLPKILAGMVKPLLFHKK

Glucocorticoid receptor = molecular target: T5, Glucocorticoid receptor (Homo sapiens, UniProt P04150); assay: Displacement of [3H]dexamethasone from GST-tagged human glucocorticoid receptor ligand binding domain after 4 hrs by liquid scintillation counting
T5 sequence (P04150 whole entry): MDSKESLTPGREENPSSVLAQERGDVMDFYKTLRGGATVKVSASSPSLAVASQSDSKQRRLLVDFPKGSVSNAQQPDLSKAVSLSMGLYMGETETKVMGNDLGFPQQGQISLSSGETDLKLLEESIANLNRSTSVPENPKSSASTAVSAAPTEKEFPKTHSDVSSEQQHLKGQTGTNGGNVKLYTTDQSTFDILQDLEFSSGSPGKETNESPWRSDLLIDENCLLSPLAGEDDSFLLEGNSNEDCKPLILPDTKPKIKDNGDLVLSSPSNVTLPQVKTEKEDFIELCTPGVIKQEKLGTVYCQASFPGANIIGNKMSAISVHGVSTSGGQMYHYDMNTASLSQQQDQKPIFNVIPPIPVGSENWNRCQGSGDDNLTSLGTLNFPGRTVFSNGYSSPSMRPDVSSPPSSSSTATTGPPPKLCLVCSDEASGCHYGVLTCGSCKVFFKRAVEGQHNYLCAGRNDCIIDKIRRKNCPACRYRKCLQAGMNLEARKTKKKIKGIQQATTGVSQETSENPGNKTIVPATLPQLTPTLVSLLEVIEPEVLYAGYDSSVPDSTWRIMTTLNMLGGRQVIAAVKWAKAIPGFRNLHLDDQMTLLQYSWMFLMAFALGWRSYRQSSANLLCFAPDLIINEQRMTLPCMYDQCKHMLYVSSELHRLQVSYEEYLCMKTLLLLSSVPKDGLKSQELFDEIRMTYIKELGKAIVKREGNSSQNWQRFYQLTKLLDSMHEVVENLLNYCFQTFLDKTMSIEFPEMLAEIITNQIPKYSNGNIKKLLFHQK

CYP2D6 = CYP2D6 (Homo sapiens, UniProt P10635); assay: Inhibition of CYP2D6 (unknown origin) at 3 uM; assay type: ADME
[6] = molecular target: T1, Mineralocorticoid receptor; assay: Antagonist activity at human mineralocorticoid receptor ligand binding domain expressed in human Huh7 cells after 16 hrs by luciferase reporter gene assay in absence of serum; assay type: cell-based, Huh-7

Chain of CYP2C9 (P11712 whole entry): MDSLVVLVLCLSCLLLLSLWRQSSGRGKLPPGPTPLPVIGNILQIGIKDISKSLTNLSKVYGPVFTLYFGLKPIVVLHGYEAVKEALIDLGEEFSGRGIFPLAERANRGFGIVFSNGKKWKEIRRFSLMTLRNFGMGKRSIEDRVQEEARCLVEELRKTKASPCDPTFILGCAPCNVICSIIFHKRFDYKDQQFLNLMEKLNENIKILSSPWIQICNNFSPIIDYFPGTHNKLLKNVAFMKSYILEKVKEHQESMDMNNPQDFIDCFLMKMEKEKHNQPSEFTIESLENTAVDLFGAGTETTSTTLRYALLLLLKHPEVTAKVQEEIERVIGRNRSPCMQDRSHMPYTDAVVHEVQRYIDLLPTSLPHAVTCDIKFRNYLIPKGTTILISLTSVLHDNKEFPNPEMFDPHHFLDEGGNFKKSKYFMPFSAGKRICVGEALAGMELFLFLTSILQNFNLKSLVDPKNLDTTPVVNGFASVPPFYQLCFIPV
Chain of CYP2D6 (P10635 whole entry, the tested form may be a part): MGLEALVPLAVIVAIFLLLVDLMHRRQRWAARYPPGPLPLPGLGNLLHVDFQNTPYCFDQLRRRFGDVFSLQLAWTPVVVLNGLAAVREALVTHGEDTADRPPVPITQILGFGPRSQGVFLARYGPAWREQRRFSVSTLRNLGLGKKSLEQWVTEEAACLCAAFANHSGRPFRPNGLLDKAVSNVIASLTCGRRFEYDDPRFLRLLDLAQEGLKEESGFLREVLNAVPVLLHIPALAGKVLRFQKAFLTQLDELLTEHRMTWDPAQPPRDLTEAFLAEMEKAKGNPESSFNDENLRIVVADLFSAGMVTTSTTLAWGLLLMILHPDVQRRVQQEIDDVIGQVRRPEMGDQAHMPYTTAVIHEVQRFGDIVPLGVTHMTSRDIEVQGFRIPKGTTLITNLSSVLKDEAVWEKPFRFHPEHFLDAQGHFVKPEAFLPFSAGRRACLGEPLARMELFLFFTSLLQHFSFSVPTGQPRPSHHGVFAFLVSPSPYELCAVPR
Chain of CYP3A4 (P08684 whole entry): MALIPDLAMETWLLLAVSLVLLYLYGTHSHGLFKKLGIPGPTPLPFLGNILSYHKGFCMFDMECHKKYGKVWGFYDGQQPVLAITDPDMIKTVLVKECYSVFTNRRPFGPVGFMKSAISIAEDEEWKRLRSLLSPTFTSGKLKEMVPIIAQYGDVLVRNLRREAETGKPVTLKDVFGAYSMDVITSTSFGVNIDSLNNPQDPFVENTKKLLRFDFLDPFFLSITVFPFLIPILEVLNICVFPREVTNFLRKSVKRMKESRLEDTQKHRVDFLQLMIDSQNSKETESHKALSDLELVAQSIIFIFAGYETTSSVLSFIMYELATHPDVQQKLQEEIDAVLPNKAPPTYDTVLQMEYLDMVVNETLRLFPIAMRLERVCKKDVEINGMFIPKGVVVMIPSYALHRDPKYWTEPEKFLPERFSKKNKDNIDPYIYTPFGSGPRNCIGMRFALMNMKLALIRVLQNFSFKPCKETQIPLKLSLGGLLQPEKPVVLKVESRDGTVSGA

Row | SMILES | logD [1] | microsomal CLint [2] | pIC50 [3] | further results
1 | Cc1noc(C)c1S(=O)(=O)NCc1ccc(-n2ccnc2C)cc1 | 1.5 | 17 µL/min/mg | 5.33 | 
2 | Cc1cn(-c2ccc(CNS(=O)(=O)c3cc(F)ccc3F)cc2)c(C)n1 | 2.3 | 27 µL/min/mg | 6.72 | pIC50 (Androgen receptor): < 5.00; CLH(app) (Hepatocyte): 9.6 µL/min; Papp [4]: 15.4 ×10⁻⁶ cm/s; pIC50 [5]: 5.88; inhibition at 3 µM (CYP2C9): < 5%; inhibition at 3 µM (CYP3A4): < 5%; inhibition at 3 µM (CYP1A2): < 5%; pKi [3]: 6.95; pIC50 (Progesterone receptor): < 5.04; pIC50 (Glucocorticoid receptor): 5.66; inhibition at 3 µM (CYP2D6): < 5%; pIC50 [6]: 6.25
3 | Cc1nccn1-c1ccc(CNS(=O)(=O)c2ccccc2F)cc1 | 1.8 | 18 µL/min/mg | 5.73 | 
4 | Cc1noc(C)c1S(=O)(=O)NCc1ccc(-c2cccnc2)cc1 | 2.4 | 86 µL/min/mg | 5.82 | 
5 | Cc1nccn1-c1ccc(CNS(=O)(=O)c2ccc(F)cc2F)cc1 | 2 | 28 µL/min/mg | 5.68 | 
6 | Cc1noc(C)c1S(=O)(=O)NCc1ccc(-c2cncc(C#N)c2)cc1 | 1.9 | 25 µL/min/mg | 5.70 | 
7 | Cc1noc(C)c1S(=O)(=O)NCc1ccc(-c2cccc(C(N)=O)c2)cc1 | 2.4 |  | 5.69 | 
8 | Cc1nccn1-c1ccc(CNS(=O)(=O)c2cc(F)ccc2F)cc1 | 2.1 | 30 µL/min/mg | 6.20 | 

Now from value to compound, other results behind:

Row | logD [1] | microsomal CLint [2] | pIC50 [3] | SMILES | further results
9 | 3.2 | > 320 µL/min/mg | 6.92 | Cc1cc(C)c(S(=O)(=O)NCc2ccc(-n3ccnc3C)cc2)c(C)c1 | 
10 | 2.9 | 39 µL/min/mg | 5.86 | Cc1noc(C)c1S(=O)(=O)NCc1ccc(-c2cccc(NS(C)(=O)=O)c2)cc1 | 
11 | 3.9 | 267 µL/min/mg | 6.22 | Cc1noc(C)c1S(=O)(=O)NCc1ccc(-c2ccccc2)s1 | 
12 | 3.3 |  | 7.40 | Cc1noc(C)c1S(=O)(=O)NCc1ccc(-c2cccc(C#N)c2)cc1 | 
13 | 3.2 | 198 µL/min/mg | 7.35 | COc1ccc(C#N)cc1-c1ccc(CNS(=O)(=O)c2c(C)noc2C)cc1 | 
14 | 4.1 | 203 µL/min/mg | 6.45 | Cc1noc(C)c1S(=O)(=O)NCc1ccc(-c2ccccc2)cc1 | 
15 | 2.4 | 49 µL/min/mg | 6.77 | Cc1nccn1-c1ccc(CNS(=O)(=O)c2cc(F)ccc2F)cc1F | 
16 | 2 | 41 µL/min/mg | 6.47 | Cc1nccn1-c1ccc(CNS(=O)(=O)c2ccccc2Cl)cc1 | 
17 | 2.3 | 53 µL/min/mg | 5.92 | Cc1ccccc1S(=O)(=O)NCc1ccc(-n2ccnc2C)cc1 | 
